Measured values from paper PMC10341893, “Motifs in Natural Products as Useful Scaffolds to Obtain Novel Benzo[d]imidazole-Based Cannabinoid Type 2 (CB2) Receptor Agonists” (International Journal of Molecular Sciences, 2023).

Target: hCB2 receptor (Homo sapiens, UniProt P34972)
Assay: Single-dose radioligand displacement assay ([3H]WIN55212-2)
Format: binding
Set-up: host or cells: CHO cells
Conditions: membranes from recombinant CHO cells expressing human CB2, duplicate; for inhibition at 10 µM: read-out: Inhibition (%) of [3H]WIN55212-2 specific binding, 10 µM single dose; for Inhibition (%) of [3H]WIN55212-2 specific binding: 10 µM single dose
Experimental: To assess ligand binding to CB2 receptors, radioligand displacement assay at a single dose (10 μM) was performed in membranes obtained from recombinant CHO cells expressing human CB2 receptors (Eurofins Cerep SA, France). Out of 26 compounds, more than 50% of the molecules presented >50% displacement, while 20% of the compounds (5, 6, 16, 19, 22) presented >80% displacement of radioligand binding at a 10 μM dose. Compounds 5, 6, 16, 19, and 22 were further tested for CB2 receptor activation (agonist activity, see below) and CB2/CB1 selectivity.
All membrane preparations for these studies were generated at Cerep Inc. according to standard protocols. Duplicate determinations were performed for each test compound. Compounds were dissolved in DMSO to generate a stock solution. Radioligand binding methods were adapted from Munro et al..

hCB2 receptor, sequence (P34972 whole entry): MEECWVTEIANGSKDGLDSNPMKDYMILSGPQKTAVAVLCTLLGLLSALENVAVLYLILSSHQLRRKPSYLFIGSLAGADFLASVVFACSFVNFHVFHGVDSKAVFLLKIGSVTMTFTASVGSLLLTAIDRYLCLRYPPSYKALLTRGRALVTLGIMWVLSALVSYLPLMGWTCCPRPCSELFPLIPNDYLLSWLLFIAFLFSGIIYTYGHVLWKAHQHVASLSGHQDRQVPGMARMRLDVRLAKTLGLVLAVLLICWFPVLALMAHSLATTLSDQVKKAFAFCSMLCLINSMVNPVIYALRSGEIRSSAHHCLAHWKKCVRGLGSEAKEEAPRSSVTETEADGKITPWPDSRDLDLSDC

inhibition at 10 µM	Inhibition (%) of [3H]WIN55212-2 specific binding	Compound
2%	–	CC1CCC(C(C)C)C(Sc2nc3ccccc3n2Cc2cccc3ccccc23)C1 (stereo not drawn) [Compound 1, 2-((2-isopropyl-5-methylcyclohexyl)thio)-1-(naphthalen-1-ylmethyl)-1H-benzo[d]imidazole]
72%	–	CC1CCC(C(C)C)C(Sc2nc3ccccc3n2Cc2ccccc2)C1 (stereo not drawn) [Compound 2, 1-benzyl-2-((2-isopropyl-5-methylcyclohexyl)thio)-1H-benzo[d]imidazole]
69%	–	CCn1c(SC2CC(C)CCC2C(C)C)nc2ccccc21 (stereo not drawn) [Compound 3, 1-ethyl-2-((2-isopropyl-5-methylcyclohexyl)thio)-1H-benzo[d]imidazole]
37%	–	CC1CCC(C(C)C)C(Oc2nc3ccccc3n2Cc2cccc3ccccc23)C1 (stereo not drawn) [Compound 4, 2-((2-isopropyl-5-methylcyclohexyl)oxy)-1-(naphthalen-1-ylmethyl)-1H-benzo[d]imidazole]
42%	–	CC(C)=CCC/C(C)=C/CSc1nc2ccccc2n1Cc1cccc2ccccc12 [Compound 7, (E)-2-((3,7-dimethylocta-2,6-dien-1-yl)thio)-1-(naphthalen-1-ylmethyl)-1H-benzo[d]imidazole]
–	71%	CC(C)=CCC/C(C)=C/CSc1nc2ccccc2n1Cc1ccccc1 [Compound 8, (E)-1-benzyl-2-((3,7-dimethylocta-2,6-dien-1-yl)thio)-1H-benzo[d]imidazole]
54%	–	CCn1c(SC/C=C(\C)CCC=C(C)C)nc2ccccc21 [Compound 9, (E)-2-((3,7-dimethylocta-2,6-dien-1-yl)thio)-1-ethyl-1H-benzo[d]imidazole]
–	40%	CC(C)=CCC/C(C)=C/COc1nc2ccccc2n1Cc1cccc2ccccc12 [Compound 10, (E)-2-((3,7-dimethylocta-2,6-dien-1-yl)oxy)-1-(naphthalen-1-ylmethyl)-1H-benzo[d]imidazole]
35%	–	CC(C)=CCC/C(C)=C/COc1nc2ccccc2n1Cc1ccccc1 [Compound 11, (E)-1-benzyl-2-((3,7-dimethylocta-2,6-dien-1-yl)oxy)-1H-benzo[d]imidazole]
–	−3%	CCn1c(OC/C=C(\C)CCC=C(C)C)nc2ccccc21 [Compound 12, (E)-2-((3,7-dimethylocta-2,6-dien-1-yl)oxy)-1-ethyl-1H-benzo[d]imidazole]
30%	–	c1ccc2c(Cn3c(SC45CC6CC(CC(C6)C4)C5)nc4ccccc43)cccc2c1 [Compound 13, 2-(adamantan-1-ylthio)-1-(naphthalen-1-ylmethyl)-1H-benzo[d]imidazole]
–	69%	c1ccc(Cn2c(SC34CC5CC(CC(C5)C3)C4)nc3ccccc32)cc1 [Compound 14, 2-(adamantan-1-ylthio)-1-benzyl-1H-benzo[d]imidazole]
–	63%	CCn1c(SC23CC4CC(CC(C4)C2)C3)nc2ccccc21 [Compound 15, 2-(adamantan-1-ylthio)-1-ethyl-1H-benzo[d]imidazole]
–	61%	CCn1c(OC23CC4CC(CC(C4)C2)C3)nc2ccccc21 [Compound 17, 2-(adamantan-1-yloxy)-1-ethyl-1H-benzo[d]imidazole]
–	46%	COc1ccc(CSc2nc3ccccc3n2Cc2cccc3ccccc23)cc1 [Compound 18, 2-((4-methoxybenzyl)thio)-1-(naphthalen-1-ylmethyl)-1H-benzo[d]imidazole]
63%	–	CCn1c(SCc2ccc(OC)cc2)nc2ccccc21 [Compound 20, 1-ethyl-2-((4-methoxybenzyl)thio)-1H-benzo[d]imidazole]
–	62%	COc1cccc(Oc2nc3ccccc3n2Cc2cccc3ccccc23)c1 [Compound 21, 2-(3-methoxyphenoxy)-1-(naphthalen-1-ylmethyl)-1H-benzo[d]imidazole]
54%	–	CCn1c(Oc2cccc(OC)c2)nc2ccccc21 [Compound 23, 1-ethyl-2-(3-methoxyphenoxy)-1H-benzo[d]imidazole]
